# Results reported in US20240287138A1, “CYCLIC PEPTIDES FOR INHIBITING TNF RECEPTOR 1 ACTIVITY” (Merck Sharp & Dohme LLC, priority 2023, published 2024).
# Numbered stars: 1 amine (or outer) side, 2 acyl side, 3 side chain; on linkers, the order of the positions; unused ones are H or OH. Bridge positions count the residues as written; N and C are the ends. Square brackets hold non-standard residues; d marks the D form. Peptide text beside a SMILES is read from it. * marks the point of attachment. Trp(βS-Me,7-OMe) = COc1cccc2c([C@H](C)[C@H](N)C(=O)O)c[nH]c12; Ala(1-bicyclo(1.1.1)pentyl) = N[C@@H](CC12CC(C1)C2)C(=O)O; Trp(4-Cl) = N[C@@H](Cc1c[nH]c2cccc(Cl)c12)C(=O)O; Trp(7-CN) = N#Cc1cccc2c(C[C@H](N)C(=O)O)c[nH]c12; Trp(7-Cl) = N[C@@H](Cc1c[nH]c2c(Cl)cccc12)C(=O)O; Phe(3-COOH) = N[C@@H](Cc1cccc(C(=O)O)c1)C(=O)O; Phe(4-CONH2) = NC(=O)c1ccc(C[C@H](N)C(=O)O)cc1; Phe(4-COOH) = N[C@@H](Cc1ccc(C(=O)O)cc1)C(=O)O; Trp(7-aza) = N[C@@H](Cc1c[nH]c2ncccc12)C(=O)O; Pip(5R-OH) = O=C(O)[C@@H]1CC[C@@H](O)CN1; X1 = O=C([C@@H]1CC[C@H](N[*:1])C1)[*:2]; X31 = O=C(CN(CCc1nnco1)[*:1])[*:2]; Pip(4-aza) = O=C(O)[C@@H]1CNCCN1; 4Pal = N[C@@H](Cc1ccncc1)C(=O)O; NMeE = CN[C@@H](CCC(=O)O)C(=O)O; dHyp = O=C(O)[C@H]1C[C@H](O)CN1; NEtAla = CCN[C@@H](C)C(=O)O; αMeS = C[C@](N)(CO)C(=O)O; Nle = CCCC[C@H](N)C(=O)O; Sar = CNCC(=O)O; X22 = C1CC1C*
# Target: T1, human soluble TNFR1 (sTNFR1) (Homo sapiens, UniProt P19438)
# T1 construct: made in house; host or cells: Sf21 (baculovirus)
# T1 sequence (P19438 with tags, fused parts or gaps): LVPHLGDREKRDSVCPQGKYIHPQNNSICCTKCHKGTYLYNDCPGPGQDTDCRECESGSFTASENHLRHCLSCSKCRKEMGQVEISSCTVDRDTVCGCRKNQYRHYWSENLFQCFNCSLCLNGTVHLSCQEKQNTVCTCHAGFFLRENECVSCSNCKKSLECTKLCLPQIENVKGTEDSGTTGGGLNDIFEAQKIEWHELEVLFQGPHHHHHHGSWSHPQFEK
# Assay: Human sTNFR1-peptide displacement assay (LanthaScreen Eu TR-FRET binding assay)
# In short: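 Readout is the 665/615 nm TR-FRET ratio (Eu anti-His donor, streptavidin-Alexa647 acceptor), normalized to DMSO and saturating displacer, fit by Morrison-based five-parameter logistic for Kd^app. His-tagged sTNFR1 (1-211) prebound to 100 nM biotinylated peptide SEQ ID NO.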
SMILES,Kd [nM],IC50 [nM]
"CCCC[C@@H]1NC(=O)[C@@H]2CC[C@@H](C2)NC(=O)[C@H]([C@@H](C)c2c[nH]c3c(OC)cccc23)NC(=O)CN(C)C(=O)[C@H](Cc2ccc(O)cc2)NC(=O)[C@H](Cc2ccc(C(=O)O)cc2)NC(=O)[C@](C)(CO)NC(=O)[C@H](Cc2c[nH]c3c(Cl)cccc23)NC(=O)[C@H](Cc2ccncc2)NC(=O)[C@H](CC(N)=O)NC(=O)[C@H](CCC(=O)O)N(C)C(=O)[C@H](Cc2c[nH]c3c(Cl)cccc23)NC(=O)[C@@H]2CNCCN2C(=O)[C@H](Cc2ccncc2)NC1=O [SEQ ID NO. 262] (cyclo([4Pal][Trp(7-Cl)][αMeS][Phe(4-COOH)]Y[Sar][Trp(βS-Me,7-OMe)][X1][Nle][4Pal][Pip(4-aza)][Trp(7-Cl)][NMeE]N))",0.39,
CN1CC(=O)N[C@@H](Cc2c[nH]c3cccc(Cl)c23)C(=O)N[C@H](C(N)=O)CSCC(=O)N[C@@H](CCC(N)=O)C(=O)N[C@@H](Cc2ccncc2)C(=O)N[C@@H](CO)C(=O)N[C@@H](Cc2c[nH]c3ncccc23)C(=O)N(C)[C@@H](CCC(=O)O)C(=O)N[C@@H](CC(N)=O)C(=O)N[C@@H](Cc2ccncc2)C(=O)N[C@@H](Cc2c[nH]c3c(Cl)cccc23)C(=O)N[C@@](C)(CO)C(=O)N[C@@H](Cc2ccc(C(=O)O)cc2)C(=O)N[C@@H](Cc2ccc(O)cc2)C1=O [SEQ ID NO. 239] ({CH2CO}-Q[4Pal]S[Trp(7-aza)][NMeE]N[4Pal][Trp(7-Cl)][αMeS][Phe(4-COOH)]Y[Sar][Trp(4-Cl)]C-NH2; thioether N-14),0.61,0.52
"CCCC[C@@H]1NC(=O)[C@@H]2CC[C@@H](C2)NC(=O)[C@H]([C@@H](C)c2c[nH]c3c(OC)cccc23)NC(=O)CN(C)C(=O)[C@H](Cc2cccc(C(=O)O)c2)NC(=O)[C@H](Cc2ccc(C(N)=O)cc2)NC(=O)[C@](C)(CO)NC(=O)[C@H](Cc2c[nH]c3c(Cl)cccc23)NC(=O)[C@H](Cc2ccc(C(=O)O)cc2)NC(=O)[C@H](CC(N)=O)NC(=O)[C@H]2C[C@H](O)CN2C(=O)[C@H](Cc2c[nH]c3ccccc23)NC(=O)[C@@H]2CC[C@@H](O)CN2C(=O)[C@H](Cc2ccncc2)NC1=O [SEQ ID NO. 17] (cyclo([4Pal][Pip(5R-OH)]W[dHyp]N[Phe(4-COOH)][Trp(7-Cl)][αMeS][Phe(4-CONH2)][Phe(3-COOH)][Sar][Trp(βS-Me,7-OMe)][X1][Nle]))",0.16,
"CCCC[C@@H]1NC(=O)[C@@H]2CC[C@@H](C2)NC(=O)[C@H]([C@@H](C)c2c[nH]c3c(OC)cccc23)NC(=O)CN(C)C(=O)[C@H](Cc2ccc(C(=O)O)cc2)NC(=O)[C@H](Cc2ccc(C(N)=O)cc2)NC(=O)[C@](C)(CO)NC(=O)[C@H](Cc2c[nH]c3c(C#N)cccc23)NC(=O)[C@H](Cc2ccncc2)NC(=O)[C@H](CC(N)=O)NC(=O)CN(CCc2nnco2)C(=O)[C@H](Cc2c[nH]c3ncccc23)NC(=O)[C@@H]2CC[C@@H](O)CN2C(=O)[C@H](Cc2ccncc2)NC1=O [SEQ ID NO. 121] (cyclo([4Pal][Trp(7-CN)][αMeS][Phe(4-CONH2)][Phe(4-COOH)][Sar][Trp(βS-Me,7-OMe)][X1][Nle][4Pal][Pip(5R-OH)][Trp(7-aza)][X31]N))",0.07,
"CCCC[C@@H]1NC(=O)CSC[C@@H](C(N)=O)NC(=O)[C@H]([C@@H](C)c2c[nH]c3c(OC)cccc23)NC(=O)CN(C)C(=O)[C@H](Cc2ccc(O)cc2)NC(=O)[C@H](Cc2ccc(C(=O)O)cc2)NC(=O)[C@](C)(CO)NC(=O)[C@H](Cc2c[nH]c3c(Cl)cccc23)NC(=O)[C@H](Cc2ccncc2)NC(=O)[C@H](CC(N)=O)NC(=O)[C@H]2CCCN2C(=O)[C@H](Cc2c[nH]c3ccccc23)NC(=O)[C@@H]2CC[C@@H](O)CN2C(=O)[C@H](Cc2ccncc2)NC1=O [SEQ ID NO. 203] ({CH2CO}-[Nle][4Pal][Pip(5R-OH)]W[dP]N[4Pal][Trp(7-Cl)][αMeS][Phe(4-COOH)]Y[Sar][Trp(βS-Me,7-OMe)]C-NH2; thioether N-14)",0.31,
CCN1C(=O)[C@H](Cc2c[nH]c3c(Cl)cccc23)NC(=O)[C@H](CO)NC(=O)[C@H](Cc2ccncc2)NC(=O)[C@H](CC23CC(C2)C3)NC(=O)CSC[C@@H](C(N)=O)NC(=O)[C@H](Cc2c[nH]c3ncccc23)NC(=O)CN(C)C(=O)[C@H](Cc2ccc(O)cc2)NC(=O)[C@H](Cc2ccc(C(=O)O)cc2)NC(=O)[C@](C)(CO)NC(=O)[C@H](Cc2c[nH]c3ncccc23)NC(=O)[C@H](Cc2ccc(C(=O)O)cc2)NC(=O)[C@H](CC(N)=O)NC(=O)[C@@H]1C [SEQ ID NO. 232] ({CH2CO}-[Ala(1-bicyclo(1.1.1)pentyl)][4Pal]S[Trp(7-Cl)][NEtAla]N[Phe(4-COOH)][Trp(7-aza)][αMeS][Phe(4-COOH)]Y[Sar][Trp(7-aza)]C-NH2; thioether N-14),2.15,3.19
"COc1cccc2c([C@H](C)[C@@H]3NC(=O)CN(C)C(=O)[C@H](Cc4ccc(C(=O)O)cc4)NC(=O)[C@H](Cc4ccc(C(N)=O)cc4)NC(=O)[C@](C)(CO)NC(=O)[C@H](Cc4c[nH]c5c(C#N)cccc45)NC(=O)[C@H](Cc4ccc(C(=O)O)cc4)NC(=O)[C@H](CC(N)=O)NC(=O)[C@H]4C[C@H](O)CN4C(=O)[C@H](Cc4c[nH]c5ncccc45)NC(=O)[C@@H]4CC[C@@H](O)CN4C(=O)[C@H](Cc4ccncc4)NC(=O)[C@H](COCC4CC4)NC(=O)[C@@H]4CC[C@@H](C4)NC3=O)c[nH]c12 [SEQ ID NO. 149] (cyclo([4Pal][Pip(5R-OH)][Trp(7-aza)][dHyp]N[Phe(4-COOH)][Trp(7-CN)][αMeS][Phe(4-CONH2)][Phe(4-COOH)][Sar][Trp(βS-Me,7-OMe)][X1]S(X22)))",0.21,
